Test results published in patent US7919454B2, “Methods of treating using conjugates transported by a PEPT2 transporter” (XenoPort, Inc., priority 2001, dated 2011).
Read-outs that look alike come from different tables or passages of the source. Non-standard residues stand in square brackets, D forms with d. Residues, ends and D or L forms follow the SMILES beside them. *: point of attachment. Dansyl = CN(C)c1cccc2c(S(=O)(=O)*)cccc12; Sar = CNCC(=O)O

Assays:
PEPT1 = molecular target: T1, PEPT1 (Homo sapiens, UniProt P46059); experiment: Transport currents (Vmax vs Gly-Sar) in Xenopus oocytes transfected with PEPT1, two-electrode voltage-clamp; type: cell-based; conditions: for Substrate quality for PEPT1 relative to Gly-Sar (in words): cells transfected with PEPT1; for PEPT1 (% Gly-Sar) drug only (Vmax) / PEPT1 (% Gly-Sar) +XP10973 (Vmax): oocytes transfected with PEPT1; for PEPT1 (% Gly-Sar) +XP10973 (Vmax): in the presence of inhibitor XP10973
T1 construct: The complete open reading frame was cloned into a Xenopus oocyte expression plasmid; expressed in transfected cells; host or cells: Xenopus oocytes injected with cRNA
T1 sequence (P46059 1-708): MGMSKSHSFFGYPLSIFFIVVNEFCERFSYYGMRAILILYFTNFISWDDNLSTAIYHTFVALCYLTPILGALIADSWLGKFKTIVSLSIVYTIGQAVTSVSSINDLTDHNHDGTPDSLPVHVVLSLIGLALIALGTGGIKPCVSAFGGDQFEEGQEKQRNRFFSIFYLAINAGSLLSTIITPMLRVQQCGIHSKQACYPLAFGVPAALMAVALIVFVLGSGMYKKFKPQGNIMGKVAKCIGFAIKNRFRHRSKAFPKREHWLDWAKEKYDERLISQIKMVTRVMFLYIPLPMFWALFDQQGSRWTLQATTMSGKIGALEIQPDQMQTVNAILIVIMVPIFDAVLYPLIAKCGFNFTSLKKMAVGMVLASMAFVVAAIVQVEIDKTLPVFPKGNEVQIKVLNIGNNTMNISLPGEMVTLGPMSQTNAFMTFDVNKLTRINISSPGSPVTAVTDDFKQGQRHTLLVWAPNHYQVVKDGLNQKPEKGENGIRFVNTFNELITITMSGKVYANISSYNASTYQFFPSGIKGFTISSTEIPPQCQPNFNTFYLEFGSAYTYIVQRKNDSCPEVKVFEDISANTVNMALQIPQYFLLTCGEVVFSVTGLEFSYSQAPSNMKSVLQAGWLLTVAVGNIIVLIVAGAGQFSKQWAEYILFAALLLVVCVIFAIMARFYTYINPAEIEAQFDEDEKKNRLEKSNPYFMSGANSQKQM
Experimental: (§1) The complete open reading frame was cloned into a Xenopus oocyte expression plasmid, linearized, and cRNA was generated by run-off transcription using the T7 polymerase. Xenopus oocytes were prepared and maintained as previously described
(§2) (Collins, et al., 1997) and injected with 10-30 ng RNA. Transport currents were measured 2-4 days after injection using two-electrode voltage-clamp (Axon Instruments). All experiments were performed using a modified oocyte Ringers solution (90 mM NaCl, 2 mM KCl, 1.8 mM CaCl2, 1 mM MgCl2, and 10 mM NaHEPES, pH 6.8). The membrane potential of oocytes was held at −60 mV and current traces acquired using PowerLab software. Responses to compounds were measured in the presence and absence of a specific non-transported inhibitor (XP10973) for PEPT1 and PEPT2. Data are expressed as the currents that are blocked by XP10973

PEPT2 = molecular target: T2, PEPT2 (Homo sapiens, UniProt Q16348, S640G); experiment: Transport currents (Vmax vs Gly-Sar) in Xenopus oocytes transfected with PEPT2, two-electrode voltage-clamp; type: cell-based; conditions: for Substrate preference PEPT2 versus PEPT1 (in words): comparison of PEPT2 and PEPT1 transfected oocytes
T2 construct: The complete open reading frame was cloned into a Xenopus oocyte expression plasmid; expressed in transfected cells; host or cells: Xenopus oocytes injected with cRNA
T2 sequence (Q16348 1-729 S640G): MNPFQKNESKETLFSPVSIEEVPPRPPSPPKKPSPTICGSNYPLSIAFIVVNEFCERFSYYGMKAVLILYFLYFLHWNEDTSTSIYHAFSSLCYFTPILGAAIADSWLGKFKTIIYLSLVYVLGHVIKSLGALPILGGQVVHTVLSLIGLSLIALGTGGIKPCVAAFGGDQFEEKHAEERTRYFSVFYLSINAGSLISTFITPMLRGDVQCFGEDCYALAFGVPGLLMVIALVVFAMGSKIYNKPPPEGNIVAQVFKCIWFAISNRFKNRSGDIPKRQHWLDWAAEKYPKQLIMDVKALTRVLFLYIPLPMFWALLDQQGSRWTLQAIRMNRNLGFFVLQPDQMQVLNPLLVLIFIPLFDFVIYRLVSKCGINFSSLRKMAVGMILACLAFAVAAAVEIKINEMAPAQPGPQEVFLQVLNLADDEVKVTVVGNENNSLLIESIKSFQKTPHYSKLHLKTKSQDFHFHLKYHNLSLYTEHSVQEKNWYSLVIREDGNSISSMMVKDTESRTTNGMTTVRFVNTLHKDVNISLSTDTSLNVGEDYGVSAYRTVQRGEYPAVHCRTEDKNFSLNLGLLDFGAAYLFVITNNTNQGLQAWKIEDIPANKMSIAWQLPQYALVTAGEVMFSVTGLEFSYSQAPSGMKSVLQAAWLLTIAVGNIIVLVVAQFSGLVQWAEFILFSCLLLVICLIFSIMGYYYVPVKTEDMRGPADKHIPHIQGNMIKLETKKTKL
Experimental: as §1
as §2, with “Transport” for “(Collins, et al., 1997) and injected with 10-30 ng RNA. Transport”

Caco-2 cells = type: in vitro ADME
Experimental: Caco-2 cells were plated on Millipore transwell filters and allowed to differentiate for 18-22 days. Integrity of the monolayers was confirmed by lack of radiolabeled inulin transport across the monolayer. Compounds were added to the apical chamber, and the appearance of compounds in the basolateral chamber were measured at various timepoints by scintillation counting or LC/MS/MS.
FIGS. 1 and 2 show uptake of cephradine and cefadroxil by Caco-2 cells in the presence and absence of XP10973 inhibitor. […] However, as described above, cephradine and cefadroxil are poor substrates for PEPT1 and good substrates for PEPT2.

[1] = oocytes transfected with PEPT2, drug only
[2] = oocytes transfected with PEPT2, in the presence of inhibitor XP10973

Row | Structure (SMILES) | Substrate quality for PEPT1 relative to Gly-Sar (in words) (PEPT1) | PEPT1 (% Gly-Sar) drug only (Vmax) (PEPT1) | PEPT1 (% Gly-Sar) +XP10973 (Vmax) (PEPT1) | Substrate quality for PEPT2 relative to Gly-Sar (in words) (PEPT2; cells transfected with PEPT2) | PEPT2 (% Gly-Sar) drug only (Vmax) (PEPT2; [1]) | PEPT2 (% Gly-Sar) +XP10973 (Vmax) (PEPT2; [2]) | Uptake by Caco-2 cells (in words) (Caco-2 cells) | Inhibition of PEPT1 transport (in words) (PEPT1) | Inhibition of PEPT2 transport (in words) (PEPT2) | PEPT2 (% Gly-Sar) +XP10973 (Vmax) (PEPT2) | PEPT2 (% Gly-Sar) drug only (Vmax) (PEPT2) | Substrate quality for PEPT2 relative to Gly-Sar (in words) (PEPT2) | Substrate preference PEPT2 versus PEPT1 (in words) (PEPT2)
1 | CC1(C)S[C@@H]2[C@H](NC(=O)[C@H](N)c3ccc(O)cc3)C(=O)N2[C@H]1C(=O)O [Amoxacillin, amoxacillin] | relatively poor susbstrates | 1.3 % Gly-Sar | 1.1 % Gly-Sar |  |  |  |  |  |  | 15 % Gly-Sar | 85 % Gly-Sar | relatively good substrates | 
2 | N[C@@H](C(=O)N[C@@H]1C(=O)N2C(C(=O)O)=C(Cl)CS[C@H]12)c1ccccc1 [Cefaclor, cefaclor] | relatively poor susbstrates | 4 % Gly-Sar | 1.6 % Gly-Sar | relatively good substrates | 148 % Gly-Sar | 22 % Gly-Sar |  |  |  |  |  |  | better substrates for PEPT2 than they are for PEPT1
3 | CC1=C(C(=O)O)N2C(=O)[C@@H](NC(=O)[C@H](N)c3ccc(O)cc3)[C@H]2SC1 [Cephadroxil, cefadroxil] | relatively poor susbstrates | 18 % Gly-Sar | 2.1 % Gly-Sar | relatively good substrates | 96 % Gly-Sar | 27 % Gly-Sar | taken up |  |  |  |  |  | better substrates for PEPT2 than they are for PEPT1

Second part, led by results:

Row | Substrate quality for PEPT1 relative to Gly-Sar (in words) (PEPT1) | PEPT1 (% Gly-Sar) drug only (Vmax) (PEPT1) | PEPT1 (% Gly-Sar) +XP10973 (Vmax) (PEPT1) | Substrate quality for PEPT2 relative to Gly-Sar (in words) (PEPT2; cells transfected with PEPT2) | PEPT2 (% Gly-Sar) drug only (Vmax) (PEPT2; [1]) | PEPT2 (% Gly-Sar) +XP10973 (Vmax) (PEPT2; [2]) | Uptake by Caco-2 cells (in words) (Caco-2 cells) | Inhibition of PEPT1 transport (in words) (PEPT1) | Inhibition of PEPT2 transport (in words) (PEPT2) | Structure (SMILES) | PEPT2 (% Gly-Sar) +XP10973 (Vmax) (PEPT2) | PEPT2 (% Gly-Sar) drug only (Vmax) (PEPT2) | Substrate quality for PEPT2 relative to Gly-Sar (in words) (PEPT2) | Substrate preference PEPT2 versus PEPT1 (in words) (PEPT2)
4 | relatively poor susbstrates | 3.5 % Gly-Sar | 1.9 % Gly-Sar | relatively good substrates | 159 % Gly-Sar | 37 % Gly-Sar | taken up |  |  | CC1=C(C(=O)O)N2C(=O)[C@@H](NC(=O)[C@H](N)C3=CCC=CC3)[C@H]2SC1 [Cephradine, cephradine] |  |  |  | better substrates for PEPT2 than they are for PEPT1
5 |  | 100 % Gly-Sar | 16 % Gly-Sar |  | 100 % Gly-Sar | 12 % Gly-Sar |  |  |  | CN(CC(=O)O)C(=O)CN [Gly-Sar] (H-Gly-[Sar]-OH) |  |  |  | 
6 |  |  |  |  |  |  |  | specific inhibitor | specific inhibitor | CC(C)C[C@H](NC(=O)[C@@H](N)CCCCNS(=O)(=O)c1cccc2c(N(C)C)cccc12)C(=O)O [XP10973] (H-Lys(Dansyl)-Leu-OH) |  |  |  | 
